PMC12152147, “DDB1 engagement defines the selectivity of S656 analogs for cyclin K degradation over CDK inhibition” (EMBO Reports, 2025)
Several values for one entry are separate records, joined by “and”; a condition that tells them apart may be missing. Equal values may be shown once. Read-outs that look alike come from different tables or passages of the source.

Columns and labels:
primary AML specimens = assay: Dose-response assays in primary AML specimens (6 days, CellTiterGlo); format: cell-based, human; conditions: 6 days, read-out: IC50
Summary of the method: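 Primary AML cells in IMDM/15% BIT with SCF, FLT3L, IL3, G-CSF, SR1 and UM729 were exposed to 8-point 1:4 dilutions (10 μM to 0.5 nM) for 6 days. Viability came from CellTiterGlo luminescence, with % inhibition versus DMSO (0.1%) fitted by nonlinear regression.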

OCI-AML5 cells = assay: Dose-response proliferative assay in OCI-AML5 (4 days, CellTiterGlo); format: cell-based, H. sapiens; conditions: OCI-AML5 cells; read-out: IC50 in AML5
Summary of the method: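 Viability assessed after 4 days of compound exposure at 37 °C, 5% CO2. Compounds tested as 8 dilutions (1:4, 10 μM to 0.5 nM) on 300 OCI-AML5 cells/well grown in αMEM with 10% heat-inactivated FBS and 10 ng/mL GM-CSF.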

cyclin KeGFP = assay: Cyclin KeGFP reporter system (eGFP/mCherry MFI by flow cytometry);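 for % degradation cyclin K-eGFP: 10 μM compound for 3 h relative to DMSO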; format: cell-based, H. sapiens
Summary of the method: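 Degradation read as eGFP-to-mCherry MFI ratio relative to DMSO controls, from flow cytometry of the selected G7 clone of OCI-AML5 cells transduced with the cyclin KeGFP reporter.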

CDK12/Cyclin K = biological target: T1, CDK12/Cyclin K (Homo sapiens, UniProt Q9NYV4); assay: CDK12/CyclinK in vitro kinase assay (BPS kit, Kinase Glo MAX); format: biochemical
T1 construct: purchased BPS Bioscience 78298
T1 sequence (Q9NYV4 whole entry): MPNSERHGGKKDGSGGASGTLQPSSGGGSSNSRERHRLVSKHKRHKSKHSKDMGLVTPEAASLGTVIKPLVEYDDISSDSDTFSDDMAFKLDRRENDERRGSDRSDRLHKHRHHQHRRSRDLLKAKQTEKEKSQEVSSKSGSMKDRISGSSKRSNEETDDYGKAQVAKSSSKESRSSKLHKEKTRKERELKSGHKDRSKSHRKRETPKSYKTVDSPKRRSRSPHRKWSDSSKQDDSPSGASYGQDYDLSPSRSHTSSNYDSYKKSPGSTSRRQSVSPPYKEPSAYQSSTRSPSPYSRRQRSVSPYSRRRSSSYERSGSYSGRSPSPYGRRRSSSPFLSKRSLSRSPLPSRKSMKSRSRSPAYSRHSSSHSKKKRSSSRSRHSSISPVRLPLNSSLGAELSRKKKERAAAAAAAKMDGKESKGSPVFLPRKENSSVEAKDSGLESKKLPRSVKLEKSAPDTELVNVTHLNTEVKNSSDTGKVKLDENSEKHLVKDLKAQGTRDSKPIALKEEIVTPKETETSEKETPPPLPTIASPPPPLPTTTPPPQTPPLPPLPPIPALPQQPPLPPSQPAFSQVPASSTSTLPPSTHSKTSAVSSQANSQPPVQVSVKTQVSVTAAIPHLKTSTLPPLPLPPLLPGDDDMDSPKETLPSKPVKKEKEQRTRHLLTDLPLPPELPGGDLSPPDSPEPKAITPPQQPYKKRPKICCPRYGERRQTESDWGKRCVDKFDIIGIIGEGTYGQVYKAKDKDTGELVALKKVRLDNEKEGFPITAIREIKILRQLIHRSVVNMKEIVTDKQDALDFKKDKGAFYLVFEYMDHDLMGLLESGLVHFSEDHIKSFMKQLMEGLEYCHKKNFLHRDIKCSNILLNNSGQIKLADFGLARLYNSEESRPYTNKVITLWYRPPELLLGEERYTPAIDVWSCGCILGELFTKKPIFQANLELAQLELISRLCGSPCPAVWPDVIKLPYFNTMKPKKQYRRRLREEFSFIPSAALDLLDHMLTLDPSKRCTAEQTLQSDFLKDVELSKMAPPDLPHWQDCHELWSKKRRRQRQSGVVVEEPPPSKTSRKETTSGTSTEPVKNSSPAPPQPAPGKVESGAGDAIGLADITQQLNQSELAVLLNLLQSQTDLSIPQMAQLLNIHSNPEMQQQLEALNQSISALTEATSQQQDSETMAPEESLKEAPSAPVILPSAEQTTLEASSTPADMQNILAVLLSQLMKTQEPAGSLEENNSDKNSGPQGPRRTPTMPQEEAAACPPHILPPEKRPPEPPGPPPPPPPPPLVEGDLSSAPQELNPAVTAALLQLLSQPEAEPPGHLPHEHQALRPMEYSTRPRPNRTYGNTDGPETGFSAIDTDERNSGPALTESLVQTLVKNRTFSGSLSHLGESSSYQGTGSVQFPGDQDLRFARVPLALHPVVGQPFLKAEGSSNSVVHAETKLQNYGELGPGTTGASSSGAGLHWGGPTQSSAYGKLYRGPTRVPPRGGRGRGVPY
T1 sequence (O75909 whole entry partner): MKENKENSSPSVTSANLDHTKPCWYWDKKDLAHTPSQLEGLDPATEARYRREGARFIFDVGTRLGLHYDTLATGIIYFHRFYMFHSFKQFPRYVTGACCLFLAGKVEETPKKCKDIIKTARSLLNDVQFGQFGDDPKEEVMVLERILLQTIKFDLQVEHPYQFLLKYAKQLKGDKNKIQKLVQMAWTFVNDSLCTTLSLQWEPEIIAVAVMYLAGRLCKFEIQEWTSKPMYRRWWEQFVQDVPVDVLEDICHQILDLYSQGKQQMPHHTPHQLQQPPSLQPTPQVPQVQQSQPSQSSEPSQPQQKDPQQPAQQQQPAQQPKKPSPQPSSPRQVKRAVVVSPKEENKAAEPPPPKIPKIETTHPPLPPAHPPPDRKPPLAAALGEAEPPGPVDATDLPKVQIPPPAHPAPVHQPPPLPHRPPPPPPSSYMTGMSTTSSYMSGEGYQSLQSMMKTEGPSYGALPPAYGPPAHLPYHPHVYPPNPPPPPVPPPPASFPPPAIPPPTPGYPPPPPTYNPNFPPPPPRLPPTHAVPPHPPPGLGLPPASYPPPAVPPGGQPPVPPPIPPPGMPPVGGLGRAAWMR
Description: (§1) Kinase activity was assessed using the kinase assay kits from BPS Bioscience for CDK1, CDK9 and CDK12 with Kinase Glo MAX in duplicates. Compounds were tested at a single concentration of 1 μM for CDK1 and CDK9 activity, and in a dilution ranging from 0.64 nM to 50 μM for CDK12 activity. Chemiluminescence was read using the Neo Synergy BioTek plate reader.

CDK1 = biological target: T2, CDK1 (Homo sapiens, UniProt P06493); assay: CDK1 in vitro kinase activity, single concentration 1 μM; format: biochemical; conditions: single concentration 1 μM
T2 construct: purchased BPS Bioscience 79597
T2 sequence (P06493 whole entry): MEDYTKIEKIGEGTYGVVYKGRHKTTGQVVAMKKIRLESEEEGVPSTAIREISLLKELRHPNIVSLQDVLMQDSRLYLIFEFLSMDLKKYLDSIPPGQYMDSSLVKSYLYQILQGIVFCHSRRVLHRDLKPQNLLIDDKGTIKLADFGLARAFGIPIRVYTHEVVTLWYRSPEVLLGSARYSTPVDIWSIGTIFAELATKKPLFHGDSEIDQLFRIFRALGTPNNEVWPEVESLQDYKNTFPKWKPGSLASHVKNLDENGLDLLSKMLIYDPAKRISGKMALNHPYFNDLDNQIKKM
T2 sequence (P14635 whole entry partner): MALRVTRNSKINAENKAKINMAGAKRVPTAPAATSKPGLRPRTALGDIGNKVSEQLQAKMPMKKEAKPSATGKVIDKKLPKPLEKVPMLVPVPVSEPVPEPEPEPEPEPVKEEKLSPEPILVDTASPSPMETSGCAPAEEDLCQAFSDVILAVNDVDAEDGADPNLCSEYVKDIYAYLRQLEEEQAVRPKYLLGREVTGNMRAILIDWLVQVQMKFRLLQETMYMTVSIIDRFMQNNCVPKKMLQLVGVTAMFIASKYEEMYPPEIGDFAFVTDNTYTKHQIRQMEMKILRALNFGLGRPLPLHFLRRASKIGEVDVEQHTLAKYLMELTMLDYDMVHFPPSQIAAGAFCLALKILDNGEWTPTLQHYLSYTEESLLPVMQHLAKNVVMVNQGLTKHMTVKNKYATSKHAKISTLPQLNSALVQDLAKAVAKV
Description: as §1

CDK9/CyclinT = biological target: T3, CDK9/CyclinT (Homo sapiens, UniProt P50750); assay: CDK9/CyclinT in vitro kinase activity, single concentration 1 μM; format: biochemical; conditions: single concentration 1 μM
T3 construct: purchased BPS Bioscience 79628
T3 sequence (P50750 whole entry): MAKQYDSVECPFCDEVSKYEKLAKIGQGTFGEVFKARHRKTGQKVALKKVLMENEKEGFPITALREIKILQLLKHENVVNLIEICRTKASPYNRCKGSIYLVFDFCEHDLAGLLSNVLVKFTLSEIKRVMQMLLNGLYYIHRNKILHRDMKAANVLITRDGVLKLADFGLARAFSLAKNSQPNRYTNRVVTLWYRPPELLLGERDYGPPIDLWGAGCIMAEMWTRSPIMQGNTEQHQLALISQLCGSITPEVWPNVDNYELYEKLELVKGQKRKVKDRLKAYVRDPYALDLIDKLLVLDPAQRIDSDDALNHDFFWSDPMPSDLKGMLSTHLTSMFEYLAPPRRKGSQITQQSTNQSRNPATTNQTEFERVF
T3 sequence (O60563 whole entry partner): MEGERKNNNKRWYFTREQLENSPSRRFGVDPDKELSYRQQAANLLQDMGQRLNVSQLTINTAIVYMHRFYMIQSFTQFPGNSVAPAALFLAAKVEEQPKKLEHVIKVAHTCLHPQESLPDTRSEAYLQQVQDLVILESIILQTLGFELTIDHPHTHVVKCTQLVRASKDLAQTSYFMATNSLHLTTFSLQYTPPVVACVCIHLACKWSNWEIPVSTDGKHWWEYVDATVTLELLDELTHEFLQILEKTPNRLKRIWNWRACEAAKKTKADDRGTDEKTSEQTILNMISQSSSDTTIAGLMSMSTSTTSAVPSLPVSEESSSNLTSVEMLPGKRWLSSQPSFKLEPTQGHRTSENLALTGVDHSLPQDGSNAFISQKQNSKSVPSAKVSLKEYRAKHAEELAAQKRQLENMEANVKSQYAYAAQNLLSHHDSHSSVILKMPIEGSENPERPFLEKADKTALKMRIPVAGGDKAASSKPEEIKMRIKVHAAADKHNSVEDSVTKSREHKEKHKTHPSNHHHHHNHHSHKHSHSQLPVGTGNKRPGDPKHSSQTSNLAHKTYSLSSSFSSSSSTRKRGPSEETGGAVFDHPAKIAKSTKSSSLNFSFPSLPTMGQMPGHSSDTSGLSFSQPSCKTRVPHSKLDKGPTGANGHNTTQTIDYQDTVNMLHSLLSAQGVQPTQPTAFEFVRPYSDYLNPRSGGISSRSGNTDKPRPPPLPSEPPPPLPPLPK
Description: as §1

[1] = system: OCI-AML5 cells expressing shRNAs targeting CDK1, 2, 4, 7, 9, cyclin K; assay: Dose response in OCI-AML5 expressing shRNAs targeting CDK1, 2, 4, 7, 9, cyclin K or control; format: cell-based, H. sapiens; conditions: for IC50: OCI-AML5, 4 days
[2] = system: OCI-AML5 cells expressing shRNA targeting CUL4A or CUL4B; assay: Dose response in OCI-AML5 expressing shRNAs targeting CUL4A, CUL4B or control; format: cell-based, H. sapiens; conditions: ratio of IC50 in shCUL4A vs shCTRL OCI-AML5 cells

- IC50 (OCI-AML5 cells): 1070 nM
- in vitro inhibition of CDK12/Cyclin K activity (CDK12/Cyclin K; Log10 (uM) 1.69897, in % (unit assumed)): 45.8 and 46.66 and 37.27
- IC50 (CDK12/Cyclin K; read-out: IC50, in vitro inhibition of CDK12/Cyclin K activity): > 50 µM
- % CDK1 inhibition (CDK1): 0%
- % CDK9 inhibition (CDK9/CyclinT): 0%
- IC50 ([1]; read-out: IC50, sh CDK1): 1500 nM and 2300 nM and 2010 nM
- IC50 ([1]; read-out: IC50, sh CDK2): 1310 nM and 1750 nM and 2460 nM
- IC50 ([1]; read-out: IC50, sh CDK4): 1240 nM and 1300 nM and 1980 nM
- IC50 ([1]; read-out: IC50, sh CDK7): 1090 nM and 1800 nM and 1930 nM
- IC50 ([1]; read-out: IC50, sh CDK9): 1110 nM and 1360 nM and 1320 nM
- IC50 ([1]; read-out: IC50, sh Cyclin K): 429 nM and 562 nM and 546 nM
- IC50 ([1]; read-out: IC50, sh ctrl): 1070 nM and 1220 nM and 1040 nM
SMILES: Cc1cccc(Nc2nc(CC(=O)Nc3ncc(C)s3)cs2)n1 [HQ461]
- IC50 (primary AML specimens; primary AML specimen 03H109): 883 nM
- IC50 (primary AML specimens; primary AML specimen 04H055): 2010 nM
- IC50 (primary AML specimens; primary AML specimen 04H096): 1220 nM
- IC50 (primary AML specimens; primary AML specimen 04H138): 2260 nM
- IC50 (primary AML specimens; primary AML specimen 05H113): 974 nM
- IC50 (primary AML specimens; primary AML specimen 05H149): 1170 nM
- IC50 (primary AML specimens; primary AML specimen 05H193): 1260 nM
- IC50 (primary AML specimens; primary AML specimen 06H088): 1320 nM
- IC50 (primary AML specimens; primary AML specimen 06H117): 1200 nM
- IC50 (primary AML specimens; primary AML specimen 06H151): 677 nM
- IC50 (primary AML specimens; primary AML specimen 07H003): 2350 nM
- IC50 (primary AML specimens; primary AML specimen 07H131): 2900 nM
- IC50 (primary AML specimens; primary AML specimen 07H144): 983 nM
- IC50 (primary AML specimens; primary AML specimen 07H155): 2460 nM
- IC50 (primary AML specimens; primary AML specimen 08H018): 2240 nM
- IC50 (primary AML specimens; primary AML specimen 08H021): 1030 nM
- IC50 (primary AML specimens; primary AML specimen 08H056): 2300 nM
- IC50 (primary AML specimens; primary AML specimen 08H063): 2420 nM
- IC50 (primary AML specimens; primary AML specimen 08H085): 1050 nM
- IC50 (primary AML specimens; primary AML specimen 08H108): 2180 nM
- IC50 (primary AML specimens; primary AML specimen 08H118): 873 nM
- IC50 (primary AML specimens; primary AML specimen 09H016): 869 nM
- IC50 (primary AML specimens; primary AML specimen 09H070): 2340 nM
- IC50 (primary AML specimens; primary AML specimen 10H014): 529 nM
- IC50 (primary AML specimens; primary AML specimen 10H046): 1050 nM
- IC50 (primary AML specimens; primary AML specimen 10H107): 1400 nM
- IC50 (primary AML specimens; primary AML specimen 10H127): 1920 nM
- IC50 (primary AML specimens; primary AML specimen 10H161): 1220 nM
- IC50 (primary AML specimens; primary AML specimen 10H174): 950 nM
- IC50 (primary AML specimens; primary AML specimen 11H008): 1540 nM
- IC50 (primary AML specimens; primary AML specimen 11H019): 1320 nM
- IC50 (primary AML specimens; primary AML specimen 11H170): 3060 nM
- IC50 (primary AML specimens; primary AML specimen 11H217): 1690 nM
- IC50 (primary AML specimens; primary AML specimen 11H232): 1460 nM
- IC50 (primary AML specimens; primary AML specimen 12H033): 2450 nM
- IC50 (primary AML specimens; primary AML specimen 12H055): 1470 nM
- IC50 (primary AML specimens; primary AML specimen 12H148): 1880 nM
- IC50 (primary AML specimens; primary AML specimen 13H053): 2280 nM
- IC50 (primary AML specimens; primary AML specimen 15H045): 931 nM
- IC50 (primary AML specimens; primary AML specimen 17H065): 1420 nM
- MFI of cyclin KeGFP over mCherry (cyclin KeGFP; OCI-AML5 G7 clone, 3 h, 10 μM, normalized to DMSO (=100)): 20.9 and 23.4 and 22.9 and 21.1 and 21.0
- % degradation cyclin K-eGFP (cyclin KeGFP; cyclin K-eGFP reporter): 79%
- Class ([1]; class from shRNA IC50 profile and cyclin K-eGFP degradation): 1
- Ratio shCUL4A/shCTRL [2]: 4.25
